Each compound was assayed against T1, human mGluR2 receptor (Homo sapiens, UniProt Q14416) (assay: [35S]GTPγS binding assay, positive allosteric modulation (GTPγS-PAM) in presence of EC20 glutamate). Settings: in presence of glutamate at EC20; average pEC50 if more experiments; ‡ means tested once.
T1 construct: expressed in transfected cells; host or cells: CHO cells
T1 sequence (Q14416 19-872): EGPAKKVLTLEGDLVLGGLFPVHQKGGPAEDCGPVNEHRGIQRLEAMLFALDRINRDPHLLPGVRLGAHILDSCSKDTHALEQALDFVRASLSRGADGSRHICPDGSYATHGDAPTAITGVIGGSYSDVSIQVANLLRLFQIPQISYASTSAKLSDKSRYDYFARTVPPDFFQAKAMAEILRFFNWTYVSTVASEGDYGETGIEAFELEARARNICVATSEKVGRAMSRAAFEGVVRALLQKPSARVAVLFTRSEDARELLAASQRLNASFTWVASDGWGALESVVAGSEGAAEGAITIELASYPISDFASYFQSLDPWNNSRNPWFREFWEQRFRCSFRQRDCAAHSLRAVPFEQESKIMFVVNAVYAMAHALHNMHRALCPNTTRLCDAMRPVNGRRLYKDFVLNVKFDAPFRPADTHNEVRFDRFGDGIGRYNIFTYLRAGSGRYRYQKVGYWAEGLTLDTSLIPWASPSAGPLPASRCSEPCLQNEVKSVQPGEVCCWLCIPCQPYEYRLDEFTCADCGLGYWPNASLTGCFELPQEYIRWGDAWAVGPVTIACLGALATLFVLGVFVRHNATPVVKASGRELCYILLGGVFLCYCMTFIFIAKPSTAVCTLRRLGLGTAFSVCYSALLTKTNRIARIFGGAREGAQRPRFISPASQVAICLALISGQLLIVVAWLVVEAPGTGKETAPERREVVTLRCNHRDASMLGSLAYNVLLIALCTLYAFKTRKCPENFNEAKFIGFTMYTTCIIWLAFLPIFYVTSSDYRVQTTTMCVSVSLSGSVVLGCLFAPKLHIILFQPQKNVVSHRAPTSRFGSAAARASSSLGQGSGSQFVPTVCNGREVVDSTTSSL
Assay type: biochemical
Protocol: [^35S]GTPγS Binding Assay
The [^35S]GTPγS binding assay is a functional membrane-based assay used to study G-protein coupled receptor (GPCR) function whereby incorporation of a non-hydrolysable form of GTP, [^35S]GTPγS (guanosine 5′-triphosphate, labelled with […] ^35S), is measured. The G-protein α subunit catalyzes the exchange of guanosine 5′-diphosphate (GDP) by guanosine triphosphate (GTP) and on activation of the GPCR by an agonist, [^35S]GTPγS, becomes incorporated and cannot be cleaved to continue the exchange cycle (Harper (1998) Current Protocols in Pharmacology 2.6.1-10, John Wiley & Sons, Inc.). […] Here we describe the use of the [^35S]GTPγS binding assay using membranes from cells transfected with the human mGluR2 receptor and adapted from Schaffhauser et al. ((2003) Molecular Pharmacology 4:798-810) for the detection of the positive allosteric modulation (PAM) properties of the compounds of this invention.
CHO-cells were cultured to pre-confluence and stimulated with 5 mM butyrate for 24 h, prior to washing in PBS, and then collected by scraping in homogenisation buffer (50 mM Tris-HCl buffer, pH 7.4, 4° C.). Cell lysates were homogenized briefly using an ultra-turrax homogenizer. The homogenate was centrifuged at 16,000 RPM (Sorvall RC-5C plus rotor SS-34) for 10 minutes and the supernatant discarded. The pellet was resuspended in 5 mM Tris-HCl, pH 7.4 and centrifuged again (18,000 RPM, 20 min, 4° C.). The final pellet was resuspended in 50 mM Tris-HCl, pH 7.4 and stored at −80° C. in appropriate aliquots before use. Protein concentration was determined by the Bradford method (Bio-Rad, USA) with bovine serum albumin as standard.
Measurement of mGluR2 positive allosteric modulatory activity of test compounds was performed as follows. Test compounds and glutamate were diluted in assay buffer containing 10 mM HEPES acid, 10 mM HEPES salt, pH 7.4, 100 mM NaCl, 3 mM MgCl2 and 10 μM GDP. Human mGlu2 receptor-containing membranes were thawed on ice and diluted in assay buffer supplemented with 14 μg/ml saponin. Membranes were pre-incubated with compound alone or together with a predefined (˜EC20) concentration of glutamate (PAM assay) for 30 min at 30° C. After addition of [^35S]GTPγS (f.c. 0.1 nM) microplates were shaken briefly and further incubated to allow [^35S]GTPγS incorporation on activation (30 minutes, 30° C.). Final assay mixtures contained 7 μg of membrane protein in 10 mM HEPES acid, 10 mM HEPES salt, pH 7.4, 100 mM NaCl, 3 mM MgCl2, 10 µM GDP and 10 μg/ml saponin. Total reaction volume was 200 μl. Reactions were terminated by rapid filtration through Unifilter-96 GF/B filter plates (Packard, Meriden, Conn.) using a 96-well Packard filtermate harvester. Filters were washed 6 times with ice-cold 10 mM NaH2PO4/10 mM Na2HPO4, pH 7.4. Filters were then air-dried, and 40 μl of liquid scintillation cocktail (Microscint-O) was added to each well. Membrane-bound radioactivity was counted in a Microplate Scintillation and Luminescence Counter from Packard.
The concentration-response curves of representative compounds of the present invention-obtained in the presence of EC20 of mGluR2 agonist glutamate to determine positive allosteric modulation (PAM)—were generated using the Lexis software interface (developed at J&J).
For `FC(F)(F)c1c(N2CC3C(C2)C3c2ccccc2)ccn2c(CC3CC3)nnc12` (racemic) [compound 75], the “GTPγS - hR2 PAM pEC50” value was 7.05. In the case of `FC(F)(F)Cc1nnc2c(Cl)c(N3CC4C(C3)C4c3ccccc3)ccn12` (racemic) [compound 81], the “GTPγS - hR2 PAM pEC50” value is reported as 6.85. With `CCc1nnc2c(C)c(N3CC4C(C3)C4c3ccccc3)ccn12` (racemic) [compound 335] the “GTPγS - hR2 PAM pEC50” value was 6.42‡. For `CCCCc1nnc2c(C(F)(F)F)c(N3CC4C(C3)C4c3ccccc3)ccn12` (racemic) [compound 338], the “GTPγS - hR2 PAM pEC50” value was 7.42‡. For `CC1CN(c2ccn3c(CC4CC4)nnc3c2Cl)CCC1c1ccccc1` (single isomer, unassigned) [compound 208], the “GTPγS - hR2 PAM pEC50” value was 7.06. For `CC1CN(c2ccn3c(CC4CC4)nnc3c2Cl)CCC1c1ccccc1` (single isomer, unassigned) [compound 211], the “GTPγS - hR2 PAM pEC50” value was 7.44. For `CC1CN(c2ccn3c(CC4CC4)nnc3c2C(F)(F)F)CCC1c1ccccc1` (single isomer, unassigned) [compound 212], the “GTPγS - hR2 PAM pEC50” value was 8.08. In the case of `FC(F)(F)c1c(N2CCC(F)(c3ccccc3)CC2)ccn2c(CC3CC3)nnc12` [compound 2, 3-Cyclopropylmethyl-7-(4-fluoro-4-phenyl-1-piperidinyl)-8-(trifluoromethyl)-1,2,4-triazolo[4,3-a]pyridine], the “GTPγS - hR2 PAM pEC50” value is reported as 7.41. In the case of `CCCCc1nnc2c(C(F)(F)F)c(N3CCC(c4ccccc4)CC3)ccn12` [compound 4, 3-Butyl-7-(4-phenyl-1-piperidinyl)-8-trifluoromethyl-1,2,4-triazolo[4,3-a]pyridine], the “GTPγS - hR2 PAM pEC50” value is reported as 7.62. With `CCc1nnc2c(C#N)c(N3CCC(c4ccccc4)CC3)ccn12` [compound 10, 3-ethyl-7-(4-phenyl-1-piperidinyl)-1,2,4-triazolo[4,3-a]pyridine-8-carbonitrile] the “GTPγS - hR2 PAM pEC50” value was 6.16. With `N#Cc1c(N2CCC(c3ccccc3)CC2)ccn2c(CC3CC3)nnc12` [compound 13, 3-(cyclopropylmethyl)-7-(4-phenyl-1-piperidinyl)-1,2,4-triazolo[4,3-a]pyridine-8-carbonitrile] the “GTPγS - hR2 PAM pEC50” value was 7.13. For `N#Cc1c(N2CCC(c3ccccc3)CC2)ccn2c(CC(F)(F)F)nnc12` [compound 20], the “GTPγS - hR2 PAM pEC50” value was 7.25. `CCc1nnc2c(C#N)c(N3CCC(c4cccc(F)c4OC)CC3)ccn12` [compound 21] was tested, and the “GTPγS - hR2 PAM pEC50” value was 6.61. With `FC(F)(F)Cc1nnc2c(Cl)c(N3CCC(c4ccccc4)CC3)ccn12` [compound 22] the “GTPγS - hR2 PAM pEC50” value was 7.26. For `CCCc1nnc2c(C#N)c(N3CCC(c4cccc(F)c4OC)CC3)ccn12` [compound 23], the “GTPγS - hR2 PAM pEC50” value was 6.98. `COCc1nnc2c(C#N)c(N3CCC(c4ccccc4)CC3)ccn12` [compound 24] was tested, and the “GTPγS - hR2 PAM pEC50” value was 6.33‡. In the case of `CCc1nnc2c(Cl)c(N3CCC(c4ccccc4)CC3)ccn12` [compound 25], the “GTPγS - hR2 PAM pEC50” value is reported as 6.42. `COc1c(F)cccc1C1CCN(c2ccn3c(CC(F)(F)F)nnc3c2C#N)CC1` [compound 27] was tested, and the “GTPγS - hR2 PAM pEC50” value was 7.51. In the case of `CCCc1nnc2c(C#N)c(N3CCC(c4ccccc4)CC3)ccn12` [compound 28], the “GTPγS - hR2 PAM pEC50” value is reported as 6.53. With `N#Cc1c(N2CCC(c3ccccc3)CC2)ccn2c(C3(C(F)(F)F)CC3)nnc12` [compound 31] the “GTPγS - hR2 PAM pEC50” value was 6.27. `N#Cc1c(N2CCC(c3ccccc3)CC2)ccn2c(COCc3ccccc3)nnc12` [compound 32] was tested, and the “GTPγS - hR2 PAM pEC50” value was 7.03. `CC(F)(F)c1nnc2c(C#N)c(N3CCC(c4ccccc4)CC3)ccn12` [compound 33] was tested, and the “GTPγS - hR2 PAM pEC50” value was 5.15‡. For `N#Cc1c(N2CCC(c3ccccc3)CC2)ccn2c(CC3CCC3)nnc12` [compound 34], the “GTPγS - hR2 PAM pEC50” value was 7.35. For `CC(C)(C)c1nnc2c(C#N)c(N3CCC(c4ccccc4)CC3)ccn12` [compound 35], the “GTPγS - hR2 PAM pEC50” value was 5.91. For `N#Cc1c(N2CCC(c3ccccc3)CC2)ccn2c(CN3CCCC3)nnc12` [compound 36], the “GTPγS - hR2 PAM pEC50” value was 5.95‡. With `N#Cc1c(N2CCC(c3ccccc3)CC2)ccn2c(CN3CCC(C(F)(F)F)CC3)nnc12` [compound 37] the “GTPγS - hR2 PAM pEC50” value was 6.51. `FC(F)(F)Cc1nnc2c(C(F)(F)F)c(N3CCC(c4ccccc4)CC3)ccn12` [compound 38] was tested, and the “GTPγS - hR2 PAM pEC50” value was 7.74. In the case of `FC(F)(F)c1cccc(C2CCN(c3ccn4c(CC5CC5)nnc4c3Cl)CC2)c1` [compound 39], the “GTPγS - hR2 PAM pEC50” value is reported as 7.52. In the case of `N#Cc1c(N2CCC(F)(c3ccccc3)CC2)ccn2c(CC3CC3)nnc12` [compound 40], the “GTPγS - hR2 PAM pEC50” value is reported as 6.67. `FC1(c2ccccc2)CCN(c2ccn3c(CC4CC4)nnc3c2Cl)CC1` [compound 42] was tested, and the “GTPγS - hR2 PAM pEC50” value was 6.83. In the case of `N#Cc1c(N2CCN(C3CCC(C(F)(F)F)CC3)CC2)ccn2c(CC3CC3)nnc12` (stereo not shown) [compound 45], the “GTPγS - hR2 PAM pEC50” value is reported as 6.07‡. For `Cc1cccnc1OC1CCN(c2ccn3c(CC4CC4)nnc3c2Cl)CC1` [compound 48], the “GTPγS - hR2 PAM pEC50” value was 6.9‡. In the case of `COc1cccc(F)c1C1CCN(c2ccn3c(CC(F)(F)F)nnc3c2C#N)CC1` [compound 51], the “GTPγS - hR2 PAM pEC50” value is reported as 8.35‡. For `N#Cc1c(N2CCN(Cc3ccc(OCC4CC4)c(Cl)c3)CC2)ccn2c(CC(F)(F)F)nnc12` [compound 52], the “GTPγS - hR2 PAM pEC50” value was 6.98‡. `N#Cc1c(N2CCC(F)(c3ccccc3)CC2)ccn2c(CC(F)(F)F)nnc12` [compound 54] was tested, and the “GTPγS - hR2 PAM pEC50” value was 6.95. In the case of `COc1cccc(F)c1C1CCN(c2ccn3c(CC4CC4)nnc3c2Cl)CC1` [compound 55], the “GTPγS - hR2 PAM pEC50” value is reported as 8.22. With `FC(F)(F)Cc1nnc2c(Cl)c(N3CCC(c4ccccn4)CC3)ccn12` [compound 56] the “GTPγS - hR2 PAM pEC50” value was 6.02‡. `COc1cccc(F)c1C1CCN(c2ccn3c(CC4CC4)nnc3c2C#N)CC1` [compound 57] was tested, and the “GTPγS - hR2 PAM pEC50” value was 8.16‡. In the case of `N#Cc1c(N2CCN(C3CCC(C(F)(F)F)CC3)CC2)ccn2c(CC(F)(F)F)nnc12` (stereo not shown) [compound 58], the “GTPγS - hR2 PAM pEC50” value is reported as 6.23. `Cc1cccnc1OC1CCN(c2ccn3c(CC(F)(F)F)nnc3c2Cl)CC1` [compound 59] was tested, and the “GTPγS - hR2 PAM pEC50” value was 7.17. With `N#Cc1c(N2CCN(Cc3cccc(C(F)(F)F)c3)CC2)ccn2c(CC(F)(F)F)nnc12` [compound 60] the “GTPγS - hR2 PAM pEC50” value was 6.33. For `COc1ccc(F)cc1C1CCN(c2ccn3c(CC(F)(F)F)nnc3c2Cl)CC1` [compound 61], the “GTPγS - hR2 PAM pEC50” value was 7.98. In the case of `FC(F)(F)c1c(N2CCC(c3ccccc3)(N3CCOCC3)CC2)ccn2c(CC3CC3)nnc12` [compound 62], the “GTPγS - hR2 PAM pEC50” value is reported as 6.41. With `FC(F)(F)Cc1nnc2c(Cl)c(N3CCN(c4ncccn4)CC3)ccn12` [compound 63] the “GTPγS - hR2 PAM pEC50” value was 6.08.

Same assay, conditions: in presence of glutamate at EC20; average pEC50 if more experiments; ‡ means tested once; read-out: GTPγS - hR2 PAM pEC50 (converted)
Work on `CCOCc1nnc2c(Cl)c(N3CCC(c4ccccc4)CC3)ccn12` [compound 5, 8-Chloro-3-(ethoxymethyl)-7-(4-phenyl-1-piperidinyl)-1,2,4-triazolo[4,3-a]pyridine] yielded an EC50 of 132 nM. In the case of `CC(C)(O)c1ccccc1C1CCN(c2ccn3c(CC4CC4)nnc3c2Cl)CC1` [compound 7, 2-[1-[8-Chloro-3-(cyclopropylmethyl)-1,2,4-triazolo[4,3-a]pyridin-7-yl]-4-piperidinyl]-α,α-dimethyl-benzenemethanol], the EC50 is reported as 39.8 nM. `CC(C)Cc1nnc2c(Cl)c(N3CCC(c4ccccc4)CC3)ccn12` [compound 9, 8-Chloro-3-(2-methylpropyl)-7-(4-phenyl-1-piperidinyl)-1,2,4-triazolo[4,3-a]pyridine] was tested, and the EC50 was 269 nM. With `N#Cc1c(N2CCC(c3ccccc3)CC2)ccn2c(CN3CCC(c4ccccc4)CC3)nnc12` [compound 12, 7-(4-phenyl-1-piperidinyl)-3-[(4-phenyl-1-piperidinyl)methyl]-1,2,4triazolo[4,3-a]pyridine-8-carbonitrile] the EC50 was 46.8 nM. `N#Cc1c(N2CCC(c3ccccc3)CC2)ccn2c(C3CCC3)nnc12` [compound 14, 3-Cyclobutyl-7-(4-phenyl-1-piperidinyl)-1,2,4-triazolo[4,3-a]pyridine-8-carbonitrile] was tested, and the EC50 was 427 nM.

Reference: US10071095B2, “1,2,4-triazolo [4,3-A] pyridine derivatives and their use for the treatment of neurological and psychiatric disorders” (JANSSEN PHARMACEUTICALS, INC., priority 2009, dated 2018)
